Earlier results, collected in patent US20030212274A1, “Novel amorphous form of omeprazole salts” (priority 2003, published 2003).
Like-named read-outs stand apart in the source and are kept apart here.

Experiments:
[1] = storage at +37° C., relative humidity 80%, 6 months (accelerated conditions)

For `COc1ccc2[nH]c([S+]([O-])Cc3ncc(C)c(OC)c3C)nc2c1` (stereo not drawn) [Omeprazole, 5-methoxy-2-[(4-methoxy-3,5-dimethyl-2-pyridinyl)-methyl]sulfinyl-1H-benzimidazole], the “half-life of degradation in water solutions” value (pH-values less than four) is listed as “ten”, the “half-life of degradation in water solutions” value (pH=7) is listed as “about 14 hours” and the “substance converted to degradation products” value [1] is listed as “about 6%”.
